SMILES strings stand for the structures.

In general, melting point refers to the temperature, or range, at which the solid turns liquid. `CC(C)C(C(=O)Nc1n[nH]c(=S)s1)N(C(=O)OCc1ccccc1)c1ccccc1F` (stereo unspecified): the melting point was 148 °C.
Then `Cc1nc2c(N)nc3ccccc3c2n1CCCS(C)(=O)=O`, with 225 to 228 °C.
With `O=[N+]([O-])c1ccc(CCN2CCC(N3CCc4ccccc43)CC2)cc1`, the melting point lay in the range of 95 to 97 °C.
Then `Cc1cc(C)c(C(=O)P2(=O)Oc3ccccc3-c3ccccc32)c(C)c1` (stereo unspecified), with 109 °C; and `CC(C)(O)C(C(=O)O)c1ccc(Cl)cc1` (stereo unspecified), with 65 °C.
Turning to `NCCCCN1C(=O)NC(c2ccccc2)(c2ccccc2)C1=O`, the melting point was in the range of 137 to 138 °C.
Then `CS(=O)(=O)c1ccc(C(Cc2cccc(F)c2)C(=O)Nc2cnc(CO)cn2)cc1` (stereo unspecified), with 82.8 to 98.7 °C; and `CCc1[nH]n(C2CCCC2)c2nc(Cc3ccc(OCc4nnn[nH]4)cc3)nc(=O)c1-2`, with 240 to 242 °C.
Turning to `CC(C)c1c(C(=O)Nc2ccc(C(=O)O)cc2)c(-c2ccccc2)c(-c2ccc(F)cc2)n1CC[C@@H]1C[C@H](CC(=O)OC(C)(C)C)OC(C)(C)O1`, the melting point lay within 240 to 242 °C.
Then `COc1cc2[nH]nc(S(C)=O)c(=O)c2cc1OC` (stereo unspecified), with 303 °C.
Regarding `CCN(CC)C/C=C/c1ccc2c(Nc3ccc(Sc4nccn4C)c(Cl)c3)c(C#N)cnc2c1`, the melting point was in the range of 223 to 228 °C.
Turning to `Cc1oc(-c2ccccc2)nc1COc1cccc(CO)c1`, the melting point was 101 to 102 °C.
Then `CCCC(=O)c1c[nH]c2c(OC)nccc2c1=O`, with 206 to 207 °C; and `CC(C)(C)c1cc2sccc2c(C(C)(C)C)c1O`, with 107 °C; and `Cn1cc(SCc2ccccc2)c(=O)c(-c2ccccc2)c1`, with 155 to 157 °C.
With `COC(=O)Cc1ccc(C(O)(C#N)c2ccccc2)n1C` (stereo unspecified), the melting point lay within 137 to 138 °C.
Then `Cc1ccc(S(N)(=O)=O)cc1C(O)CN=[N+]=[N-]` (stereo unspecified), with 98 °C; and `CC(C#N)(Sc1nc2ccccc2s1)c1ccc(C(=O)c2cccs2)cc1` (stereo unspecified), with 104 to 107 °C.
Then `CCn1cc(-c2ccc3c(c2)c(C2CCN(CCN4CCNC4=O)CC2)cn3-c2ccc(F)cc2)nn1`, with 132 to 134 °C; and `CC(=Cc1ccccc1)c1cc2c(cc1C)C(C)(C)CCC2(C)C`, with 75 to 77 °C.
Then `CC(C)(CCO)c1ccc2ncc(C(=O)NCc3ccc(Cl)cc3)c(O)c2c1`, with 184 to 192 °C.
The molecule `CC(C)(C)OC(=O)N1C2CCC(C2)N1CC(O)C(Cc1ccccc1)NC(=O)OCc1ccccc1` (mixture of isomers) gave a melting point of 119 to 126 °C.
Molecule `FC(F)(F)Oc1cccc(COc2cccc(-c3nnc(Nc4ccc(Cl)c(Cl)c4)s3)c2)c1` showed a melting point of 166 to 167 °C.
In turn, `Nc1nc2c(ncn2C2C=CC(CO)C2)c(=S)[nH]1` (stereo unspecified) returned a melting point greater than 250 °C.
For `CC1(C)COC(=O)[C@H]1NC(=O)[C@@H](CC(=O)OCc1ccccc1)n1ccc(-c2ccc(-c3ccncc3)cc2)c1`, the melting point was in the range of 175 to 177 °C.
In turn, `COc1cc(C(=O)NS(=O)(=O)c2ccccc2C)ccc1Cc1c(Cl)n(C)c2cc(Cl)c(CC(C)NC(=O)N(C)C)cc12` (stereo unspecified) yielded a melting point of 136 to 146 °C.
`CCOc1cc2c(Nc3cc(OC)c(Cl)cc3Cl)c(C#N)cnc2cc1OCCOC` gave a melting point of 215 to 217 °C.
Then `COC1=C(OC)C(=O)c2c(cccc2S(=O)c2ccccc2)C1=O` (stereo unspecified), with 165 to 167 °C.
In turn, `CCCCCCCC(=O)N(C)Cc1ccc(OCc2ccccc2)c(-c2ccc(C=C3SC(=O)NC3=O)cc2)c1` showed a melting point of 93 °C.
`CN1C(=O)CC(c2ccccc2)C1C(O)c1ccc(-c2ccc(F)c(Cl)c2)s1` (stereo unspecified) yielded a melting point of 194 °C.
`NCCCN1CC=C(c2ccc(Cl)cc2)CC1` registered a melting point of 57 to 58 °C.
Then `CC1CC(N)(C(=O)O)c2cc(F)ccc2O1` (mixture of isomers), with 153 to 156 °C; and `COc1ccc(CC(=O)NCCc2cccc(OC)c2OC)cc1OC`, with 80 °C.
`COc1ccc2ccc(N3C(=O)c4ccccc4C3OCc3cccnc3)nc2n1` (stereo unspecified) displayed a melting point of 175 °C.
For `CNc1nc(C)c(-c2ccnc(Nc3ccc(Cl)c(CO)c3)n2)s1`, the melting point lay in the range of 191 to 193 °C.
Take `O=C(c1ccccc1)N1CCc2[nH]c3cccc(-c4ccccc4F)c3c2CC1`: the melting point was 241 to 244 °C.
With `Nc1c(CC(=O)O)cccc1Oc1cc(Cl)cc(Cl)c1`, the melting point was in the range of 113 to 115 °C.
In turn, `Cc1ccc(C[C@@H]2CN(C(=O)/C=C/c3ccccc3)CCN2C(=O)c2cc(C(F)(F)F)cc(C(F)(F)F)c2)cc1C` registered a melting point of 87 to 91 °C.
Then `CC1(C)CC(NC(=O)NCc2ccccc2)c2cc(C#N)ccc2O1` (stereo unspecified), with 140 to 141 °C.
In the case of `CC(C)(C)c1cc(N=C=O)no1`, the melting point lay in the range of 165 to 167 °C.
The result for `CSc1c(CC(=O)O)ccc2c1[nH]c1ccccc12` reads 210 to 212 °C.
Molecule `COC(=O)c1[nH]c2c(C)ccc(C)c2c1[N+](=O)[O-]` displayed a melting point of 193 to 194 °C.
`C=C(C)CC(O)C(Br)(Br)Br` (stereo unspecified) showed a melting point of 64 to 65 °C.
The result for `CCN(CC)C(=O)COC(=O)CCNC(=O)[C@H](Cc1ccc(-c2ccccc2)cc1)NCP(=O)(Oc1ccccc1)Oc1ccccc1` reads 68 to 74 °C.
`Clc1ccc(-c2cn3c(n2)CCCC3)c(Cl)c1` displayed a melting point of 134 to 136 °C.
Then `Nc1cc(Cl)c(N2CCC(N3CCOCC3)CC2)c(Cl)c1`, with 144 to 146 °C; and `CCOC(=O)CC1=CC2C(CCC3(C)C(O)CCC23)c2ccc(O)cc21` (stereo unspecified), with 178 °C; and `Cc1cc(C2=NN(C(N)=S)[C@H](C)Cc3cc4c(cc32)OCO4)cc(C)c1[N+](=O)[O-]`, with 228 to 230 °C.
For `CCOC(=O)c1cn(-c2ccc(F)cc2F)c2cc(F)c(F)c(C)c2c1=O`, the melting point lay in the range of 161 to 164 °C.
The result for `CC(C)[Si](C(C)C)(C(C)C)C1(CO)c2ccccc2-c2ccccc21` reads 106 to 108 °C; that for `COc1cc(O)cc(Cl)c1`, 94 to 96 °C; that for `O=C(CCCCl)Nc1ccc2[nH]ncc2c1`, 160 to 161 °C.
`CN1CCN(c2ccc3c(=O)n4c(nc3c2)C(=O)c2cc(F)ccc2-4)CC1` showed a melting point of 242 to 244 °C.
Then `COc1ccc(Oc2nc(Nc3cccc(C(=O)O)c3)nc(Oc3ccc(C=O)cc3OC)n2)cc1`, with 180 to 182 °C; and `CC(OC1CCCN(Cc2ncn[nH]2)C1c1ccccc1)c1cc(C(F)(F)F)cc(C(F)(F)F)c1` (stereo unspecified), with 182 to 183 °C.
The result for `CSCC(=O)Nc1ccccc1` reads 100 °C; that for `COc1cc(C(C)=O)ccc1OCCCN1CCC(C(O)(c2ccc(F)c(F)c2)c2ccc(F)c(F)c2)CC1`, 143 to 146 °C.
The molecule `C#Cc1cnn2c(C(F)(F)F)cc(-c3ccc(Cl)c(C)c3)nc12` displayed a melting point of 166 °C.
`CCCCCCCCN1CC(C(=O)OC)N(S(=O)(=O)c2ccc(NC(=O)c3ccc(Cl)cc3)cc2)CC1=O` (stereo unspecified) gave a melting point of 171 to 173 °C.
For `CN1C2=C(CSC2)C(=O)Nc2cccnc21`, the melting point was in the range of 240 to 241 °C.
Then `CCC1(O)C(=O)OCc2c1cc1n(c2=O)Cc2cc3cc(O)ccc3nc2-1` (stereo unspecified), with 230 to 235 °C.
The molecule `CC(CO)Oc1cc(-n2nc3n(c2=O)CCCC3)c(Cl)cc1Cl` (stereo unspecified) gave a melting point of 54 to 57 °C.
Regarding `CN(C)c1cc(C(=O)CS(C)(=O)=O)cc(N(C)C)c1C(C)(C)C`, the melting point fell in the range of 177 to 179 °C.
As to `Cc1nc(N)c(C#N)c(NCc2cncc(Br)c2)n1`, the melting point lay within 283 to 284 °C.
As for `Cc1cc(C)c(C2C(=O)CC(c3ccccc3)CC2=O)c(C)c1` (stereo unspecified), the melting point lay within 215 to 216 °C.
The result for `CC(=O)NCC1CN(c2ccc(N3CCN(C(=O)COC(=O)CN4CCN(C)CC4)CC3)c(F)c2)C(=O)O1` (stereo unspecified) reads 128 to 129 °C.
The result for `CCc1cc(OC)c(O)c([N+](=O)[O-])c1` reads 59 to 61 °C.
Then `COC(=O)c1c(C(C)C)c(S(=O)(=O)c2ccc(O)cc2)c2ccccn12`, with 199 °C; and `COc1ccc(-n2nnnc2C(F)(F)F)cc1[C@H]1CO[C@]2(CCCN(Cc3nc(=O)[nH][nH]3)[C@H]2c2ccccc2)C1`, with 186 to 187 °C; and `O=C(Nc1c(C(=O)c2ccccc2)[nH]c2cc(Cl)ccc12)c1ccccc1Cl`, with 229 to 234 °C.
Molecule `O=C1NC(O)c2cccn2-c2sccc21` (stereo unspecified) came in with a melting point of 166 °C.
Then `O=C(NCc1ccc(F)cc1)c1ccnc(N2CCN(Cc3ccc(F)c(F)c3)C2=O)c1`, with 165 to 167 °C.
Then `NC(=O)[C@@H]1[C@H](Nc2ccnc3[nH]c(-c4ccc(N5CCOCC5)cc4)nc23)[C@H]2C=C[C@@H]1C2`, with 240 to 244 °C; and `COc1ccc(NC(C)(C)C(=O)O)c([N+](=O)[O-])c1`, with 119 to 121 °C.
Regarding `O=Cc1c(Cl)cc(Cl)cc1OCc1ccccc1`, the melting point lay in the range of 98 to 100 °C.
The result for `CC(C)C[C@H](NC(=O)COc1ccc(Cl)cc1)C(=O)N[C@@H](Cc1ccccc1)C(=O)CSCc1ccco1` reads 116 to 117 °C; that for `CN1C(=O)c2cccc3c(S(C)(=O)=O)ccc1c23`, 216 to 218 °C.
For `CCN(CC)c1ccc(-c2nnc(Nc3ccc(Br)c(Cl)c3)s2)cc1`, the melting point lay within 232 to 233 °C.
The result for `NS(=O)(=O)c1ccc(-c2cc(F)c(F)cc2-c2ccc(F)c(Cl)c2)cc1` reads 162 to 163 °C.
`CCCCOc1ccc2[nH]c(C(=O)O)cc2c1` gave a melting point of 153 °C.
On to `CS(=O)(=O)NCCCCC(c1cc(F)ccc1F)S(=O)(=O)c1ccc(Cl)cc1` (stereo unspecified), for which the melting point lay in the range of 106 to 107 °C.
The result for `CCc1c2c(nc3ccccc13)-c1cc3c(c(=O)n1C2)COC(=O)CC3(O)CC` (stereo unspecified) reads greater than 280 °C; that for `CC(C)Cn1c(=O)n(C)c(=O)c2c(Sc3ccccn3)c(Cc3cccc4ccccc34)sc21`, 148 to 149 °C; that for `CCOc1ccn2nc(SCc3ccccc3)nc2n1`, 115 to 117 °C.
With `CC(=O)OC1CC2C3CCC(C(C)CCCC(C)C)C3(C)CCC2C2(C)CC(F)C(O)CC12` (stereo unspecified), the melting point fell in the range of 148 to 150 °C.
The result for `O=C(O)C(CC1CCCCC1)NS(=O)(=O)c1ccc(Cl)cc1` (racemic) reads 127 to 129 °C.
